Values after ≈ are worked out from the molar mass of the structure shown.
Legend:
[1] = test system: SK678Siglec+Unique (SLBRSK678, GST fusion), S. sanguinis strain SK678, chimera +Hsa CD loop; assay: ELISA, biotinylated sialoglycan binding to immobilized GST-adhesin chimera; set-up: species or system Streptococcus sanguinis strain SK678; conditions: +SLBRHsa CD loop; one-point, 1-2 μg/ml biotinylated glycans
Text: (§1) 21. FIGS. 11A, and 11B show chimeras of SRR adhesins. […] Values correspond to the mean±standard deviation, with n=2 (wt) or n=3 (variants). […] Values correspond to the mean±standard deviation, with n=2 (wt) or n=3 (variants).

[2] = test system: SK678Siglec+Unique (SLBRSK678, GST fusion), S. sanguinis strain SK678, chimera +Hsa FG loop; assay: as above; set-up: species or system Streptococcus sanguinis strain SK678; conditions: +SLBRHsa FG loop; one-point, 1-2 μg/ml biotinylated glycans
Text: as §1

[3] = test system: SK678Siglec+Unique (SLBRSK678, GST fusion), S. sanguinis strain SK678, chimera +Hsa EF loop; assay: as above; set-up: species or system Streptococcus sanguinis strain SK678; conditions: +SLBRHsa EF loop; one-point, 1-2 μg/ml biotinylated glycans
Text: as §1

[4] = biological target: SK678Siglec+Unique (SLBRSK678, GST fusion), S. sanguinis strain SK678, variant Q367D; assay: ELISA, biotinylated sialoglycan binding to immobilized GST-adhesin; conditions: ELISA curves
Protocol: Dose response curves of biotin-glycan binding to immobilized variant SLBRs (500 nM). […] Measurements were performed using 500 nM of immobilized GST-adhesin and the indicated concentrations of each ligand are shown as the mean±SD (n=2).
(§4) DNA encoding wild-type and variant adhesins were cloned into pGEX-3X. […] DNA encoding adhesin chimeras were cloned into pGEX-3X.
(§5) The pGEX vectors encode an N-terminal glutathione S-transferase (GST) affinity tag, which was used for purification. Individual GST-Siglec+Unique fusions were expressed and purified using glutathione-sepharose, and the binding of biotinylated glycans to immobilized GST-binding regions was performed.

[5] = biological target: SK678Siglec+Unique (SLBRSK678, GST fusion), S. sanguinis strain SK678, variant E298R; assay: as above; conditions: for EC50: ELISA curves; for binding selectivity: ELISA
Protocol: as §4, §5

[6] = test system: UB10712Siglec+Unique (SLBRUB10712, GST fusion), S. gordonii strain UB10712, chimera +Hsa FG loop; assay: ELISA, biotinylated sialoglycan binding to immobilized GST-adhesin chimera; set-up: species or system Streptococcus gordonii strain UB10712; conditions: +SLBRHsa FG loop; one-point, 1-2 μg/ml biotinylated glycans
Text: as §1

[7] = test system: UB10712Siglec+Unique (SLBRUB10712, GST fusion), S. gordonii strain UB10712, chimera +Hsa EF loop; assay: as above; set-up: species or system Streptococcus gordonii strain UB10712; conditions: +SLBRHsa EF loop; one-point, 1-2 μg/ml biotinylated glycans
Text: as §1

[8] = test system: UB10712Siglec+Unique (SLBRUB10712, GST fusion), S. gordonii strain UB10712, chimera +Hsa CD loop; assay: as above; set-up: species or system Streptococcus gordonii strain UB10712; conditions: +SLBRHsa CD loop; one-point, 1-2 μg/ml biotinylated glycans
Text: as §1

[9] = biological target: SK678Siglec+Unique (SLBRSK678, GST fusion), wild-type, Streptococcus sanguinis strain SK678; assay: ELISA, biotinylated sialoglycan binding to immobilized GST-adhesin; conditions: ELISA curves
Text: (§2) 20. FIGS. 10A, 10B, 10C, 10D, and 10E show chimeragenesis of Hsa-like adhesins. Dose-response curves of 10A wild-type GST-SK678Siglec+Unique, 10B wild-type GST-UB10712Siglec+Unique, and 10C wild-type GST-HsaSiglec+Unique to five selected ligands. D and E. Dose-response curves of the chimeras D. GST-SK678^Hsa-loops and E. UB10712^Hsa-loops which contain the CD, EF, and FG loops of Hsa.

[10] = biological target: T1, HsaSiglec+Unique (SLBRHsa, GST fusion), wild-type, Streptococcus gordonii strain Challis (Streptococcus gordonii, UniProt A8AWU7); assay: as above; conditions: ligands chosen for costructures
T1 construct: the Siglec and Unique domains of Hsa; made in house
T1 sequence (A8AWU7 220-449 limits assumed): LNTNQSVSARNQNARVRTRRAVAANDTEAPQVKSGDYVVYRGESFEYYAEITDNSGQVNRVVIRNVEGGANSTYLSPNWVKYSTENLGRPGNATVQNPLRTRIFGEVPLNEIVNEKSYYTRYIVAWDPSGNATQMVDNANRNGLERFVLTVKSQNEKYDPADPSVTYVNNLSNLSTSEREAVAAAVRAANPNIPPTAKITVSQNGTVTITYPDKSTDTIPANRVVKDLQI
Protocol: (§3) 19. FIGS. 9A, 9B, 9C, and 9D show the impact of flexibility of sialoglycan binding by HsaBR. […] As a note, Hsa^S253 contains Ramachandran angles in the generously allowed region. FIGS. 9B, 9C, and 9D show dose response curves of wild-type and variant GST-HsaSiglec+Unique (500 nM) immobilized in 96-well plates and binding to 9B. the Neu5Ac-Gal disaccharide, 9C. sialyl-T antigen, and 9D. 3′sialyl-N-acetyllactosamine. Biotinylated sialoglycan ligands were added at the indicated concentrations. Binding is reported as the mean±standard deviation, with n=2.
as §2

[11] = biological target: T2, UB10712Siglec+Unique (SLBRUB10712, GST fusion), S. gordonii strain UB10712, variant E285R (Streptococcus mitis, UniProt A0A6I8WFK9); assay: as above
T2 sequence (A0A6I8WFK9 1-210): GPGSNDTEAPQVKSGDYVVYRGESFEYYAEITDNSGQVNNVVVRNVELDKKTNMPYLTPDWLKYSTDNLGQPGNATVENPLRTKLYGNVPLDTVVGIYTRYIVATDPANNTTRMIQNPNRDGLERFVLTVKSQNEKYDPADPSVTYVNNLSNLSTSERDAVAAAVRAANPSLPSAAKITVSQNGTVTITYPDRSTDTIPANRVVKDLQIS
Protocol: as §4, §5

[12] = previously reported glycan binding/array; cited from earlier work
[13] = ELISA: sialoglycan binding spectrum of wild-type, chimeric and variant adhesins (several ligands, in words); conditions: 500 nM immobilized GST-adhesin, compared with wild-type/parent
Protocol: as §3, §2, §1

human plasma proteins = assay: Far-western blotting of human plasma proteins with GST-binding regions; conditions: 15 nM probe
Protocol: Each Far Western was performed at least twice, with a representative blot shown.
Far-western blotting of human plasma proteins using the indicated GST-binding regions (15 nM) as probes was performed as described.

Molecule | relative binding strength (A450) [1] | relative binding strength (A450) [2] | relative binding strength (A450) [3] | EC50 [4] | EC50 [5] | relative binding strength (A450) [6] | relative binding strength (A450) [7] | relative binding strength (A450) [8] | EC50 [9] | ligand affinity class [10] | binding selectivity [11] | binding selectivity [5] | reported sialoglycan selectivity of wild-type adhesin [12] | change of sialoglycan binding and selectivity [13] | plasma glycoprotein bound (human plasma proteins)
CC(=O)N[C@H]1[C@H]([C@H](O)[C@H](O)CO)O[C@@](O[C@H]2[C@@H](O)[C@@H](CO)O[C@@H](O[C@H]3[C@H](O)[C@@H](NC(C)=O)C(O)O[C@@H]3CO)[C@@H]2O)(C(=O)O)C[C@@H]1O (some centres unmarked) [3′sLn, Neu5Acα2-3Galβ1-4GlcNAc] | − (A450 < 0.3) | + (A450 = 0.3-0.7) | ++ (A450 = 0.7-1) | >5 µg/mL | 2.60 µg/mL (≈ 3.85 µM) | ++ (A450 = 0.7-1) | +++ (A450 > 1) | ++ (A450 = 0.7-1) | 0.85 µg/mL (≈ 1.26 µM) | intermediate-affinity | – | – | – | – | –
CC(=O)N[C@H]1[C@H]([C@H](O)[C@H](O)CO)O[C@@](O[C@H]2[C@@H](O)[C@@H](CO)O[C@@H](O[C@H]3[C@H](O)[C@@H](NC(C)=O)C(O)O[C@@H]3COS(=O)(=O)O)[C@@H]2O)(C(=O)O)C[C@@H]1O (stereo partly drawn) [6S-3′sLn] | – | – | – | – | – | – | – | – | – | – | became selective | became selective | – | – | –
CC(=O)N[C@H]1[C@H]([C@H](O)[C@H](O)CO)O[C@@](O[C@H]2[C@@H](O)[C@@H](CO)O[C@@H](O[C@H]3[C@H](O[C@@H]4O[C@@H](C)[C@@H](O)[C@@H](O)[C@@H]4O)[C@@H](NC(C)=O)C(O)O[C@@H]3COS(=O)(=O)O)[C@@H]2O)(C(=O)O)C[C@@H]1O (stereo partly drawn) [6S-sLe^X] | − (A450 < 0.3) | − (A450 < 0.3) | ++ (A450 = 0.7-1) | >5 µg/mL | 0.06 µg/mL (≈ 0.0666 µM) | + (A450 = 0.3-0.7) | +++ (A450 > 1) | +++ (A450 > 1) | 0.63 µg/mL (≈ 0.699 µM) | low-affinity | became selective | became selective | – | – | –
CC(=O)N[C@H]1[C@H]([C@H](O)[C@H](O)CO)O[C@@](O[C@H]2[C@@H](O)[C@@H](CO)O[C@@H](O[C@H]3[C@H](O)[C@@H](CO)OC(O)[C@@H]3NC(C)=O)[C@@H]2O)(C(=O)O)C[C@@H]1O (some centres unmarked) [sLe^C, Neu5Acα2-3Galβ1-3GlcNAc] | − (A450 < 0.3) | − (A450 < 0.3) | − (A450 < 0.3) | >5 µg/mL | >5 µg/mL | + (A450 = 0.3-0.7) | + (A450 = 0.3-0.7) | − (A450 < 0.3) | >5 µg/mL | high-affinity | – | – | – | – | –
CC(=O)N[C@H]1[C@H]([C@H](O)[C@H](O)CO)O[C@@](O[C@H]2[C@@H](O)[C@@H](CO)O[C@@H](O[C@H]3[C@@H](O)[C@@H](CO)OC(O)[C@@H]3NC(C)=O)[C@@H]2O)(C(=O)O)C[C@@H]1O (some centres unmarked) [sTa, Neu5Acα2-3Galβ1-3GalNAc] | − (A450 < 0.3) | − (A450 < 0.3) | − (A450 < 0.3) | >5 µg/mL | >5 µg/mL | ++ (A450 = 0.7-1) | + (A450 = 0.3-0.7) | + (A450 = 0.3-0.7) | >5 µg/mL | high-affinity | – | – | – | – | –
GspBSiglec+Unique: wild-type Siglec and Unique domains of GspB from S. gordonii strain M99 (protein) DTERPVVNVPSEITVYRGESFEYFATVTDNSNAFDLAKTVVRWLYNNQPGRGTEWLQYSVTQVGNQLKVRIFGNVPIDTTIGDYTRYVVATDAAGNVNATQTEMGNAAVDKTSVNGQFKLIIRFRIKTPENTVFVNNPNQLTEVEKNLVREAVKKSNPDLRAQDVLNSNYVTGITVSNNGTTTITYRDGRKDIIDGSKFIDTR | – | – | – | – | – | – | – | – | – | – | – | – | narrow selectivity for the sTa trisaccharide | binding preference for sTa | sTa-modified proteoglycan 4
